Test results: article PMC5007513, “Discovery of new diketopiperazines inhibiting Burkholderia cenocepacia quorum sensing in vitro and in vivo” (Scientific Reports, 2016)

Assays:
[1] = test system: HeLa cells; experiment: Mammalian cell viability assay; format: cell-based, Human; conditions: for cell death in microphotographs: 72 h
Protocol: Human cervical carcinoma-derived HeLa cells were maintained in routine culture with weekly splitting. […] All reagents were purchased from Life Technologies. Twenty-four hours before drug treatment, cells were trypsinized, resuspended in medium and counted on a Z2 Beckman Coulter counter (Beckman Coulter) in order to obtain a confluent 12-wells plate. […] Cell viability data were derived from two independent experiments and were normalized to NT sample at 24 h. NT samples were subjected only to DMSO solvent. Microphotographs were obtained through an inverted microscope (Nikon) equipped with phase contrast and dark field illumination.

[2] = test system: C. elegans; experiment: Survival of uninfected C. elegans treated with the compounds; conditions: no infection
[3] = test system: Burkholderia mallei AHL-synthase; conditions: cited from earlier work

Row | Compound | significant effects (p < 0.05) on cell growth ([1]; HeLa, 10, 25, 50 and 100 μM, 24 h and 48 h) | cell death in microphotographs ([1]; HeLa) | C. elegans survival ([2]; 1 μM, 24 h) | C. elegans survival ([2]; 1 μM, 48 h) | C. elegans survival ([2]; 5 μM, 24 h) | C. elegans survival ([2]; 5 μM, 48 h) | C. elegans survival ([2]; 10 μM, 24 h) | C. elegans survival ([2]; 10 μM, 48 h) | C. elegans survival ([2]; 25 μM, 24 h) | C. elegans survival ([2]; 25 μM, 48 h) | cell viability reduction ([1]; HeLa, 50 μM, 48 h) | reduction in cell viability ([1]; HeLa, 100 μM, 24 h) | cell death in microphotographs ([1]; HeLa, 50 and 100 μM) | activity against AHL-synthase [3]
1 | O=C1CNC(=O)C(c2cc(OCc3ccccc3)ccc2OCc2ccccc2)N1 (stereo not shown) [6a] | observed only after 48 h treatment at a concentration of 100 μM | did not induce cell death | 98 ± 6% | 91 ± 12% | 99 ± 2% | 98 ± 4% | 91 ± 8% | 86 ± 10% | 91 ± 4% | 91 ± 6% | – | – | – | –
2 | O=C1C=CC(=O)C(C2NC(=O)C(Cc3ccccc3)NC2=O)=C1 (stereo not shown) [8b] | – | – | 98 ± 5% | 97 ± 6% | 97 ± 7% | 95 ± 7% | 99 ± 2% | 95 ± 10% | 98 ± 5% | 96 ± 5% | approximately 50% | ~20% | confirmed cell death | –
3 | CN1CCN(C(c2ccccn2)c2c(-c3ccccc3)n(O)c3ccccc23)CC1 (stereo not shown) [compound 1 from Christensen et al., reference compound] | – | – | – | – | – | – | – | – | – | – | – | – | – | very active
